Laboratory results reported in patent publication US20210299079A1, “MONOMETHYL FUMARATE-CARRIER CONJUGATES AND METHODS OF THEIR USE” (Flagship Pioneering Innovations V, Inc., priority 2018, published 2021).

Legend:
[1] = molecular target: T1, AhR (Homo sapiens, UniProt P35869); assay: AhR Activation in Caco-2 Cells Through CYP1A1 mRNA Expression; conditions: overnight
T1 sequence (P35869 11-848): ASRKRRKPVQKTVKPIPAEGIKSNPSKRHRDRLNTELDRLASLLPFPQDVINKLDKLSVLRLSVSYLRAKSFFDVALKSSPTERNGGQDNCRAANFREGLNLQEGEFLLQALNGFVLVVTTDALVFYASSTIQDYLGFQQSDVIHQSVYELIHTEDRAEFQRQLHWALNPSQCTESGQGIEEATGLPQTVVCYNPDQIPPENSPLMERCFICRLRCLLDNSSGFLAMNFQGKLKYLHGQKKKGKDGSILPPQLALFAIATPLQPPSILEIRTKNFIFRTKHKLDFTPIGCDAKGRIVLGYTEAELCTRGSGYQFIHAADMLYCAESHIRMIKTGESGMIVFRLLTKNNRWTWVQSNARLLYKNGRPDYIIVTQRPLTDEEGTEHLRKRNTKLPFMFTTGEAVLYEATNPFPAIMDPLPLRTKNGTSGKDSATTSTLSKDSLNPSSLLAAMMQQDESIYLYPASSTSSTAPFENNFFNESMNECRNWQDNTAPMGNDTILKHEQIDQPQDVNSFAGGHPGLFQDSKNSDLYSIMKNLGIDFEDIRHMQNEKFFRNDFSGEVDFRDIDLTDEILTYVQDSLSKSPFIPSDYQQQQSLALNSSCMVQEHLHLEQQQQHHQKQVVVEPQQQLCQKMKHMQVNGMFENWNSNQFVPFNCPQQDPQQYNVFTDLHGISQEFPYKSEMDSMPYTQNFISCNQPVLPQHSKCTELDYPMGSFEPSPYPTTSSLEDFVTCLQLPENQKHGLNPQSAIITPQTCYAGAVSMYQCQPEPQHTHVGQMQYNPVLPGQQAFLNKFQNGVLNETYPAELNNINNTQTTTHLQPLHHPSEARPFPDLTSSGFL
Protocol: Caco-2 cells from American Type Culture Collection (ATCC) were plated in a sterile tissue culture treated 96-well plate (ThermoFisher) at 8.0×10^5 cells per well, and grown overnight at 37° C., 5% CO2 in DMEM complete (Gibco) in order to achieve confluence. After the incubation medium was aspirated off of the Caco-2 monolayers, tissues were then washed with 200 μL of warmed PBS solution, and subsequently 190 μL of pre-warmed growth medium was added to each well. Compounds of interest were diluted at a 20× concentration in growth medium containing 2% DMSO, and 10 μL of compound solutions were added to respective wells in triplicate. Compounds where incubated overnight at 37° C., 5% CO2. 2-(1′H-indole-3′-carbonyl)-thiazole-4-carboxylic acid methyl ester (ITE) was used as the positive control for AhR activation at 1 and 100 μM concentrations. At the end of the incubation, medium was aspirated off of the Caco-2 cells, and washed with 100 μL of cold PBS solution. RNA was extracted via the TaqMan™ Gene Expression Cells-to-CT™ Kit (ThermoFisher) according to the manufacturer's protocol. The QuantStudio 6 Flex (Applied Biosciences) was used to analyze mRNA levels of CYP1A1 using GAPDH as the endogenous control. TaqMan™ probe sets for both genes were acquired from ThermoFisher. Samples were run in triplicate and data was analyzed using the QuantStudio software and reported as linear (Table 6) and log 2(ΔΔCT) values. Statistical analysis was performed using a two-tailed t-test comparing CYP1A1 levels in the presence of each individual compound to the vehicle negative control.

[2] = test system: IL-8; assay: Neutrophil Chemokine Production Assay: IL-8; format: cell-based; conditions: human neutrophils, 12 h
Summary of the method: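 Neutrophils were isolated from human blood by Histopaque-1077 separation and RBC lysis, then plated at 2.0×10^5 cells/well in RPMI complete. Cells were stimulated with LPS (10 μL of a 2 μg/mL solution) for 12 h at 37 °C. Supernatant chemokines were measured by Luminex multiplex, averaging three data points from two donors.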

In the case of `CCC(=O)O` [propionate], the “Average CYP1A1 mRNA levels” value ([1]; Conc. 1000.0 μM) is reported as “− (− = <2-fold Vehicle)”, the “Average CYP1A1 mRNA levels” value ([1]; Conc. 3000.0 μM) is reported as “− (− = <2-fold Vehicle)” and the “% IL-8 (Vehicle + LPS = 100%)” value ([2]; Conc. 500.0 μM) is reported as “− (− = >90% Vehicle)”. For the same compound, the “% IL-8 (Vehicle + LPS = 100%)” value ([2]; Conc. 1000.0 μM) was “++ (++ = <70% Vehicle)” and the “% IL-8 (Vehicle + LPS = 100%)” value ([2]; Conc. 3000.0 μM) was “+++ (+++ = <50% Vehicle)”.
